According to patent US8703805B2 (Exelixis Patent Company LLC, priority 2005, dated 2014):

Tested on: LXRα and/or LXRβ
Experiment: LXR/LXRE co-transfection assay (luciferase reporter, CV-1 cells)
Format: cell-based, human
Details: IC50 or EC50 for LXR (LXRα and/or LXRβ, not distinguished), tested as described in Example 109, CV-1 cells
Source text: To measure the ability of compounds to activate or inhibit the transcriptional activity of LXR in a cell based assay, the co-transfection assay was used. It has been shown that LXR functions as a heterodimer with RXR. For the co-transfection assay; expression plasmids for LXR and RXR are introduced via transient transfection into mammalian cells along with a luciferase reporter plasmid that contains one copy of a DNA sequence that is bound by LXR-RXR heterodimers (LXRE; Willy, P. ad. 1995). Treatment of transfected cells with an LXR agonist increases the transcriptional activity of LXR, which is measured by an increase in luciferase activity.
CV-1 African Green Monkey Kidney Cells Co-transfection expression plasmids, comprising full-length LXRα (pCMX-h LXRα, LXRβ (pCMX-hLXRβ), or RXRα (pCMX-RXR), reporter plasmid (LXREx1-Tk-Luciferase), and control (pCMX-Galactosidase expression vector) (Willey et al. Genes & Development 91033-1045 (1995)). Transfection reagent such as FuGENE6 (Roche). 1× Cell lysis buffer (1% Triton X 100 (IT Baker X200-07), 10% Glycerol (JT Baker M778-07), 5 mM Ditriotreitol (Quantum Bioprobe DTT03; add fresh before lysing), 1 mM EGTA (Ethylene Glycol-bis(B-Amino ethyl ether)-N,N,N′,N′-Tetracetic Acid) (Sigma E-4378), 25 mM Tricine (ICN 807420) pH 7.8) 1× Luciferase assay buffer (pH at 7.8) (0.73 mM ATP, 22.3 mM Tricine, 0.11 mM EDTA, 33.3 mM DTT) 1× Luciferrin/CoA (11 mM Luciferin, 3.05 mM Coenzyme A, 10 mM HEPES) Preparation of Screening Reagents
CV-1 cells were prepared 24 hours prior to the experiment by plating them into T-175 flasks or 500 cm^2 dishes in order to achieve 70-80% confluency on the day of the transfection. The number of cells to be transfected was determined by the number of plates to be screened. each 384 well plate requires 1.92×10^6 cells or 5000 cells per well. DNA Transfection Reagent was prepared by mixing the required plasmid DNAs with a cationic lipid transfection reagent FuGENE6 (Roche) by following the instructions provided with the reagents. Optimal DNA amounts were determined empirically per cell line and size of vessel to be transfected. 10-12 mL of media was added to the DNA Transfection Reagent and this mixture was added to the cells after aspirating media from the T175 cm^2 flask. Cells were then incubated at least 5 hours at 37° C. to prepare screening cells.
Luciferase assay reagent was prepared by combining before use (per 10 mL): […], 0.54 mL of 1× Luciferrin/CoA; 0.54 mL of 0.2 M Magnesium sulfate
Assay plates were prepared by dispensing 5 μL of compound per well of a 384 well plate to achieve final compound concentration of 10 μM and no more than 1% DMSO. Media was removed from the screening cells, the cells trypsinized, harvested cells by centrifugation, counted, and plated at a density of approximately 5000 cells per well in the 384 well assay plate prepared above in a volume of about 45 μL. Assay plates containing both compounds and screening cells (50 μL in total volume) were incubated for 20 hours at 37° C.
After incubation with compounds, media was removed from the cells and lysis buffer (30 μL/well) added. After 30 minutes at ambient temperature, luciferase assay buffer (30 μL/well) was added and the assay plates read on a luminometer (PE Biosystems Northstar reader with on-board injectors, or equivalent). Plates were read immediately after addition of luciferase assay buffer.
The LXR/LXRE co-transfection assay can be used to establish the EC50/IC50 values for potency and percent activity or inhibition for efficacy. Efficacy defines the activity of a compound relative to a high control ((N-(3-((4-fluorophenyl)-(naphthalene-2-sulfonyl)amino)propyl)-2,2-dimethylpropionamide)) or a low control (DMSO/vehicle). The dose response curves are generated from an 8 point curve with concentrations differing by ½ LOG units. each point represents the average of 4 wells of data from a 384 well plate. […]

“1-(5-(1-(2-chlorophenyl)-3-(trifluoromethyl)-1H-pyrazol-5-yl)thiophen-2-ylsulfonyl)-4-methylpiperazine [Example 69]” gave an EC50 of under 1000 nM.

With “2-[1-(2-chlorophenyl)-5-{5-[3-(methylsulfonyl)phenyl]pyridin-2-yl}-1H-pyrazol-3-yl]propan-2-ol [Example 79]” the EC50 was over 10000 nM.

With CC(C)(O)c1nn(-c2ccccc2F)c(-c2ccc(-c3cccc(S(C)(=O)=O)c3)s2)c1Cl [Example 23] the EC50 was under 1000 nM.

CC(C)(O)c1cc(-c2sc(-c3cccc(S(C)(=O)=O)c3)cc2Br)n(-c2cccc(F)c2C(F)(F)F)n1 [Example 49, 2-(5-(3-bromo-5-(3-(methylsulfonyl)phenyl)thiophen-2-yl)-1-(3-fluoro-2-(trifluoromethyl)phenyl)-1H-pyrazol-3-yl)propan-2-ol] showed an EC50 of under 1000 nM.

FC(F)(F)c1cc(-c2cccc(OCCN3CCOCC3)c2)n(-c2ccccc2Cl)n1 [Example 67, 4-(2-(3-(1-(2-chlorophenyl)-3-(trifluoromethyl)-1H-pyrazol-5-yl)phenoxy)-ethyl)morpholine] showed an EC50 of 1000 to 10000 nM.

CS(=O)(=O)c1cccc(Oc2ccc(-c3cc(C(F)(F)F)nn3-c3ccccc3Cl)cc2)c1 [Example 68, 1-(2-chlorophenyl)-5-(4-{[3-(methylsulfonyl)phenyl]oxy}phenyl)-3-(trifluoromethyl)-1H-pyrazole] gave an EC50 of under 1000 nM.

Work on CC(C)(O)c1cc(-c2ccc(C(=O)N3CCC3)cc2)n(-c2ccccc2Cl)n1 [Example 80] yielded an EC50 of over 10000 nM.

In the case of CC(C)(O)c1cc(-c2cccc(Cl)c2Cl)n(-c2ccc(-c3cccc(S(C)(=O)=O)c3)cc2)n1 [Example 106, 2-(5-(2,3-dichlorophenyl)-1-(3′-(methylsulfonyl)biphenyl-4-yl)-1H-pyrazol-3-yl)propan-2-ol], the EC50 is reported as 1000 to 10000 nM.

In the case of Cc1cc(-c2cccc(S(C)(=O)=O)c2)ccc1-c1c(Cl)c(C(C)(C)O)nn1-c1cnccc1C(F)(F)F [Example 107, 2-(4-chloro-5-(3-methyl-3′-(methylsulfonyl)biphenyl-4-yl)-1-(4-(trifluoromethyl)pyridin-3-yl)-1H-pyrazol-3-yl)propan-2-ol], the EC50 is reported as under 1000 nM.

Work on CC(C)(O)c1cc(-c2ccc(-c3cccc(S(C)(=O)=O)c3)cc2)n(-c2cnccc2C(F)(F)F)n1 [Example 108, 2-(5-(3′-(methylsulfonyl)biphenyl-4-yl)-1-(4-(trifluoromethyl)pyridin-3-yl)-1H-pyrazol-3-yl)propan-2-ol] yielded an EC50 of 1000 to 10000 nM.

Work on CC(C)(O)c1nn(-c2cnccc2C(F)(F)F)c(-c2ccc(-c3cccc(S(C)(=O)=O)c3)cc2)c1Cl [Example 109, 2-(4-chloro-5-(3′-(methylsulfonyl)biphenyl-4-yl)-1-(4-(trifluoromethyl)pyridin-3-yl)-1H-pyrazol-3-yl)propan-2-ol] yielded an EC50 of 1000 to 10000 nM.

CC(C)(O)c1nn(-c2ccc(-c3cccc(S(C)(=O)=O)c3)cc2)c(-c2ccccc2Cl)c1Cl [Example 110, 2-(4-chloro-5-(2-chlorophenyl)-1-(3′-(methylsulfonyl)biphenyl-4-yl)-1H-pyrazol-3-yl)propan-2-ol] showed an EC50 of under 1000 nM.

For CC(C)(O)c1cc(-c2ccc(-c3cccc(S(C)(=O)=O)c3)s2)n(-c2ccncc2Cl)n1 [Example 112, 2-(1-(3-chloropyridin-4-yl)-5-(5-(3-(methylsulfonyl)phenyl)thiophen-2-yl)-1H-pyrazol-3-yl)propan-2-ol], the EC50 was 1000 to 10000 nM.

Cc1cc(-c2cccc(S(C)(=O)=O)c2)ccc1-n1nc(C(C)(C)O)cc1-c1ccccc1Cl [Example 113, 2-(5-(2-chlorophenyl)-1-(3-methyl-3′-(methylsulfonyl)biphenyl-4-)-1H-pyrazol-3-yl)propan-2-ol] showed an EC50 of under 1000 nM.

With CC(C)(O)c1cc(-c2ccccc2Cl)n(-c2ccc(-c3cccc(S(C)(=O)=O)c3)cc2Cl)n1 [Example 114, 2-(1-(3-chloro-3′-(methylsulfonyl)biphenyl-4-yl)-5-(2-chlorophenyl)-1H-pyrazol-3-yl)propan-2-ol] the EC50 was under 1000 nM.

For Cc1cc(-c2cccc(S(C)(=O)=O)c2)ccc1-n1nc(C(C)(C)O)cc1-c1c(F)cccc1Cl [Example 115, 2-(5-(2-chloro-6-fluorophenyl)-1-(3-methyl-3′-(methylsulfonyl)biphenyl-4-yl)-1H-pyrazol-3-yl)propan-2-ol], the EC50 was under 1000 nM.

With Cc1cc(-c2cccc(S(C)(=O)=O)c2)ccc1-n1nc(C(C)(C)O)cc1-c1cccc(F)c1F [Example 116, 2-(5-(2,3-difluorophenyl)-1-(3-methyl-3′-(methylsulfonyl)biphenyl-4-yl)-1H-pyrazol-3-yl)propan-2-ol] the EC50 was under 1000 nM.

CC(C)(O)c1cc(-c2ccc(-c3cccc(S(C)(=O)=O)c3)cc2Cl)n(-c2cnccc2C(F)(F)F)n1 [Example 117, 2-(5-(3-chloro-3′-(methylsulfonyl)biphenyl-4-yl)-1-(4-(trifluoromethyl)pyridin-3-yl)-1H-pyrazol-3-yl)propan-2-ol] gave an EC50 of 1000 to 10000 nM.

In the case of COC(=O)c1cc(-c2ccc(-c3cccc(S(C)(=O)=O)c3)cn2)n(-c2ccccc2Cl)n1 [Example 118, methyl 1-(2-chlorophenyl)-5-(5-(3-(methylsulfonyl)phenyl)pyridin-2-yl)-1H-pyrazole-3-carboxylate], the EC50 is reported as under 1000 nM.

For CC(C)(O)c1cc(-c2ccc(-c3cccc(S(C)(=O)=O)c3)cn2)n(-c2ccccc2Cl)n1 [Example 119, 2-(1-(2-chlorophenyl)-5-(5-(3-(methylsulfonyl)phenyl)pyridin-2-yl)-1H-pyrazol-3-yl)propan-2-ol], the EC50 was 1000 to 10000 nM.

CC(C)(O)c1cc(-c2c(F)cccc2Cl)n(-c2ccc(-c3cccc(S(C)(=O)=O)c3)cc2F)n1 [Example 120, 2-(5-(2-chloro-6-fluorophenyl)-1-(3-fluoro-3′-(methylsulfonyl)biphenyl-4-yl)-1H-pyrazol-3-yl)propan-2-ol] showed an EC50 of under 1000 nM.

CC(C)(O)c1cc(-c2cccc(F)c2F)n(-c2ccc(-c3cccc(S(C)(=O)=O)c3)cc2F)n1 [Example 121, 2-(5-(2,3-difluorophenyl)-1-(3-fluoro-3′-(methylsulfonyl)biphenyl-4-yl)-1H-pyrazol-3-yl)propan-2-ol] showed an EC50 of 1000 to 10000 nM.

Work on Cc1cc(-c2cccc(S(C)(=O)=O)c2)ccc1-n1nc(C(C)(C)O)cc1-c1c(Cl)cccc1Cl [Example 122, 2-(5-(2,6-dichlorophenyl)-1-(3-methyl-3′-(methylsulfonyl)biphenyl-4-yl)-1H-pyrazol-3-yl)propan-2-ol] yielded an EC50 of under 1000 nM.

For C=C(C)c1cc(-c2ccc(-c3cccc(S(C)(=O)=O)c3)s2)n(-c2ccccc2Cl)n1 [Example 123, 1-(2-chlorophenyl)-5-(5-(3-(methylsulfonyl)phenyl)thiophen-2-yl)-3-(prop-1-en-2-yl)-1H-pyrazole], the EC50 was under 1000 nM.

In the case of CC(C)(O)c1cc(-c2c(Cl)cccc2Cl)n(-c2ccc(-c3cccc(S(C)(=O)=O)c3)cc2Cl)n1 [Example 124, 2-(1-(3-chloro-3′-(methylsulfonyl)nbiphenyl-4-yl)-5-(2,6-dichlorophenyl)-1H-pyrazol-3-yl)propan-2-ol], the EC50 is reported as under 1000 nM.

CC(C)(O)c1nn(-c2ccncc2Cl)c(-c2ccc(-c3cccc(S(C)(=O)=O)c3)s2)c1Cl [Example 125, 2-(4-chloro-1-(3-chloropyridin-4-yl)-5-(5-(3-(methylsulfonyl)phenyl)thiophen-2-yl)-1H-pyrazol-3-yl)propan-2-ol] was tested, and the EC50 was under 1000 nM.
